The values that follow come from patent US11160808B2, “Compounds that enhance Atoh1 expression” (Massachusetts Eye & Ear Infirmary, priority 2008, dated 2021).

Data set [1] concerns Math1 enhancer and minimal promoter Luciferase reporter in HEK cells. In words: Math1 Luciferase reporter assay in HEK cells. The class given is cell-based, human. The conditions noted are these: Homo sapiens, HEK293; for IC50: read-out: IC50; for maximal fold induction: read-out: Maximum (Fold DMSO). From the text: A human embryonic kidney (HEK) cell line stably expressing a Luciferase gene controlled by an Math1 enhancer and minimal promoter was used in a high-throughput screen (HTS) of 144,000 small molecules to identify compounds that increase Math1 expression (i.e., transcription and/or translation). Such compounds can be used to increase the conversion of stem cells, progenitor cells, and support cells to or towards a hair cell. Screens to identify such compounds are described by Li et al., (U.S. Publication No. 2005/0287127) and Li et al., (U.S. application Ser. No. 11/953,797).
HEK cells stably expressing the Math1 Luciferase reporter were plated onto 384 well plates and cultured overnight in medium containing 10% fetal calf serum (FCS). Activation of the Math1 enhancer was measured by the increase in luminescence on a plate reader following addition of a luciferase detection agent. The assay was optimized for cell number, time of incubation, volume of medium, cell lysis reagent and luciferase reagent. Luminescence levels were compared in cells with the Math1-luciferase construct with and without retinoic acid (1 μM), and/or a luciferase construct with and without the Math1 enhancer and minimal promoter region.
To improve assay sensitivity, and reduce the coefficient of variation (CV), a more sensitive luciferase reagent (BriteLite luciferase reporter assay reagent, Perkin Elmer) was used, and Triton-X-100 was added to the lysis reagent to ensure complete lysis of the cells. Following these changes a CV of 4.2% was recorded. These conditions were used for all high-throughput screens. The luminescence threshold for a compound to be positive was defined as a 2-fold increase above the control (e.g., cells exposed to DMSO).
Cells were seeded on 384 well plates and allowed to attach overnight at 37° C. with 5% CO2 in the absence of growth factors. Math1 activation was measured by the increase in luminescence on a plate reader following addition of a luciferase detection reagent. Luminescence was assessed at 24, 48, and 72 hours. These conditions were used to screen 144,000 compounds contained in the small molecule libraries at Harvard University's Laboratory for Drug Discovery in Neurodegeneration (LDDN).
HTS were performed using HEK-Math1 cells seeded in 384 well plates. One compound was added per well using pin transfer. The final concentration of each compound was […]. Cell were incubated in the presence of a compound for 48 hours at 37° C. with 5% CO2. Cell lysates then were collected and bioluminescence determined. Luminescence values were compared normalized against DMSO.
About 20000 compounds were screened per week in 50 plates of 384 well with the aid of robotic systems (Beckman Biomek FX). Compounds were screened at an average final concentration of 0.7 μM (in 0.04% DMSO) with each plate containing 16 wells of 1 μM retinoic acid, as a positive control, and 16 wells of 0.04% DMSO, as a vehicle control. Percent activation of luminescence in the test compounds was determined for cells treated with the compounds against cells treated with DMSO.
Ten compounds, randomly selected from the group of 110 compounds identified in Example 2, were further evaluated, as follows. HEK cells were plated on 96 well plates at a density of 100000 cells per well. One day after plating, 0.1, 1, and 5 μM of each positive compound was added per well in a 10% fetal bovine serum (FBS) DMEM solution. Cells were then lysed 48 hours after addition of the compound and Math1 expression was analyzed using a luciferase reporter assay, as described above, and real-time PCR.
The half maximal inhibitory concentration (IC50) and median lethal dose or Lethal Dose, 50% (LD50) were determined for each of the compounds identified in Example 2 using standard laboratory techniques. IC50 is a measure of the effectiveness of a compound in inhibiting biological or biochemical function. LD50 is the amount of a compound required to kill half the members of a tested population.

Data set [2] can be described thus: LD50 (median lethal dose) determination. The class given is cell-based. From the text: IC50 is a measure of the effectiveness of a compound in inhibiting biological or biochemical function. LD50 is the amount of a compound required to kill half the members of a tested population.

Usually IC50 stands for the concentration that inhibits the measured activity by half.

For the compound `Cn1cc(Cl)c(C(=O)NCC(=O)c2ccccc2)n1` [CP-0070886, 4-chloro-1-methyl-N-(2-oxo-2-phenylethyl)-1H-pyrazole-3-carboxamide], in data set [1], the IC50 worked out at 1000 nM and the maximal fold induction was 2.1. Moreover, the “LD50” value in data set [2] is above 10 µM.

With `COc1ccc(-c2csc(Nc3ncccc3C)n2)cc1` [CP-0071862, 4-(4-methoxyphenyl)-N-(3-methylpyridin-2-yl)thiazol-2-amine], in data set [1], the IC50 was determined as 700 nM and the maximal fold induction amounted to 1.8. Moreover, in data set [2], the “LD50” value was above 10 µM.

`Nc1nc(-c2ccc(-c3ccccc3)cc2)cs1` [CP-0072036, 4-(biphenyl-4-yl) thiazol-2-amine]: in data set [1], the IC50 is 1500 nM and the maximal fold induction turned out to be 1.7. The “LD50” value in data set [2] was above 10 µM.

Turning to `Cc1cccc(-c2ccc3ccccc3n2)c1` [CP-0072092, 2-m-tolylquinoline], in data set [1], the IC50 was determined as 1000 nM and the maximal fold induction came to 1.7. The “LD50” value in data set [2] was above 10 µM.

`c1ccc(-c2cc3ccccc3[nH]2)nc1` [CP-0072096, 2-(pyridin-2-yl)-1H-indole]: in data set [1], the IC50 was 6000 nM and the maximal fold induction worked out at 2.2. In addition, the “LD50” value in data set [2] is above 10 µM.

As to `O=C(Nc1ccc(Cl)cn1)c1cccs1` [CP-0072156, N-(5-chloropyridin-2-yl)thiophene-2-carboxamide], in data set [1], the IC50 was 2000 nM and the maximal fold induction worked out at 2. Besides, the “LD50” value in data set [2] was above 10 µM.

`O=C(Nc1ccc(I)cc1)c1ccco1` [CP-0072253, N-(4-iodophenyl)furan-2-carboxamide]: in data set [1], the IC50 is 1300 nM and the maximal fold induction worked out at 2. In addition, in data set [2], the “LD50” value was above 10 µM.

As for `O=C(NCCOc1ccc(F)cc1)c1cccs1` [CP-0072271, N-(2-(4-fluorophenoxy)ethyl)thio-phene-2-carboxamide], in data set [1], the IC50 was 1000 nM and the maximal fold induction came to 2.2. Further, the “LD50” value in data set [2] was above 10 µM.

For the compound `COc1cccc(Nc2ncnc3[nH]cnc23)c1` [CP-0072720, N-(3-methoxyphenyl)-9H-purin-6-amine], in data set [1], the IC50 stood at 3000 nM and the maximal fold induction was 1.8. The “LD50” value in data set [2] is above 10 µM.

Regarding `Cn1c(COc2ccc(F)cc2)nc2ccccc21` [CP-0074806, 2-((4-fluorophenoxy)methyl)-1-methyl-1H-benzo[d]imidazole], in data set [1], the IC50 was found to be 700 nM and the maximal fold induction turned out to be 1.8. The “LD50” value in data set [2] was above 10 µM.

`O=C(c1cc(-c2ccc(Br)cc2)on1)N1CCOCC1` [CP-0075627, (5-(4-bromophenyl)isoxazol-3-yl)(morpholino)methanone]: in data set [1], the IC50 was found to be 8000 nM and the maximal fold induction was 2. In addition, the “LD50” value in data set [2] is above 10 µM.

Take `CCN(CC)C(=O)c1cc2cc3cc(OC)ccc3nc2s1` [CP-0076627, N,N-diethyl-6-methoxythieno [2,3-b]quinoline-2-carboxamide]: in data set [1], the IC50 stood at 5000 nM and the maximal fold induction is 2.2. In addition, in data set [2], the “LD50” value is above 10 µM.

`O=C(Nc1ccccc1Cl)C(=O)c1c[nH]c2ccccc12` [CP-0078448, N-(2-chlorophenyl)-2-(1H-indol-3-yl)-2-oxoacetamide]: in data set [1], the IC50 was above 10000 nM and the maximal fold induction turned out to be 1.9. In addition, the “LD50” value in data set [2] is above 10 µM.

For `CCN(CC)c1ncnc2c1cnn2-c1cccc(C)c1` [CP-0079810, N,N-diethyl-1-m-tolyl-1H-pyrazolo[3,4-d]pyrimidin-4-amine], in data set [1], the IC50 was determined as 3000 nM and the maximal fold induction amounted to 2.3. Further, in data set [2], the “LD50” value was above 10 µM.

Regarding `Clc1ccc2oc(-c3ccccc3)nc2c1` [CP-0079983, 5-chloro-2-phenylbenzo[d]oxazole], in data set [1], the IC50 was found to be 3000 nM and the maximal fold induction turned out to be 1.8. For the same compound, the “LD50” value in data set [2] was above 10 µM.

Consider `COc1ccc(-c2ccc3c(n2)CCCN3)cc1` [CP-0080276, 6-(4-methoxyphenyl)-1,2,3,4-tetrahydro-1,5-naphthyridine], for which, in data set [1], the IC50 was found to be 300 nM and the maximal fold induction stood at 2. In data set [2], the “LD50” value was above 10 µM.

On to `c1ccc(SCc2nc3ccccc3[nH]2)cc1` [CP-0080773, 2-(phenylthiomethyl)-1H-benzo[d]imidazole], for which, in data set [1], the IC50 is above 10000 nM and the maximal fold induction was determined as 2.2. The “LD50” value in data set [2] is above 10 µM.

In the case of `NC(=O)c1c(NC(=O)c2cc3ccccc3o2)sc2c1CCC2` [CP-0087336, N-(3-carbamoyl-5,6-dihydro-4H-cyclopenta[b]thiophen-2-yl)benzofuran-2-carboxamide], in data set [1], the IC50 was found to be 80 nM and the maximal fold induction stood at 2.2. Moreover, the “LD50” value in data set [2] is above 10 µM.

Consider `COc1ccccc1N1CCN(c2ccc3ccccc3n2)CC1` [CP-0087799, 2-(4-(2-methoxyphenyl)piperazin-1-yl)quinoline], for which, in data set [1], the IC50 came out at 1000 nM and the maximal fold induction was found to be 2.1. Besides, in data set [2], the “LD50” value is above 10 µM.

Turning to `O=C(NCCSc1ccccc1)c1cncc(Br)c1` [CP-0089966, 5-bromo-N-(2-(phenylthio)ethyl) nicotinamide], in data set [1], the IC50 is above 10000 nM and the maximal fold induction stood at 2.2. The “LD50” value in data set [2] is above 10 µM.

For the compound `Cc1ccc2nc(-c3cc4ccccc4oc3=N)[nH]c2c1` [CP-0091818, 3-(6-methyl-1H-benzo[d]imidazol-2-yl)-2H-chromen-2-imine], in data set [1], the IC50 worked out at 900 nM and the maximal fold induction is 2.1. Also, the “LD50” value in data set [2] was above 10 µM.

For `COc1cc(C)c2c(=O)cc(-c3ccccc3)oc2c1` [CP-0096433, 7-methoxy-5-methyl-2-phenyl-4H-chromen-4-one], in data set [1], the IC50 turned out to be 3000 nM and the maximal fold induction stood at 2. Further, in data set [2], the “LD50” value was above 10 µM.

For `CS(=O)(=O)n1nccc1-c1ccc(-c2ccc(F)cc2F)o1` [CP-0099289, 5-(5-(2,4-difluorophenyl)furan-2-yl)-1-(methylsulfonyl)-1H-pyrazole], in data set [1], the half-maximal inhibitory concentration (IC50) was above 10000 nM and the maximal fold induction is 1.6. The “LD50” value in data set [2] was above 10 µM.

Take `CC(=O)Nc1cc(-c2sc3ccc(Cl)cc3c2C)n[nH]1` [CP-0102404, N-(3-(5-chloro-3-methylbenzo[b]thiophen-2-yl)-1H-pyrazol-5-yl)acetamide]: in data set [1], the IC50 was above 10000 nM and the maximal fold induction came out at 1.6. In addition, the “LD50” value in data set [2] was above 10 µM.

Regarding `Cc1cccc(-c2nc3cc(C)ccc3o2)c1` [CP-0103978, 5-methyl-2-m-tolylbenzo[d]oxazole], in data set [1], the IC50 is 1000 nM and the maximal fold induction came out at 2. Besides, the “LD50” value in data set [2] is above 10 µM.

`Cc1oc(C(C)(C)C)cc1-c1cc(NC(=O)c2ccccc2)[nH]n1` [CP-0104765, N-(3-(5-tert-butyl-2-methylfuran-3-yl)-1H-pyrazol-5-yl)benzamide]: in data set [1], the half-inhibitory concentration (IC50) was 400 nM and the maximal fold induction stood at 2. In addition, the “LD50” value in data set [2] was above 10 µM.

Regarding `Cc1cc(C(=O)Nc2ccccc2)c(C)n1Cc1cccs1` [CP-0104766, 2,5-dimethyl-N-phenyl-1-(thiophen-2-ylmethyl)-1H-pyrrole-3-carboxamide], in data set [1], the IC50 is 3000 nM and the maximal fold induction stood at 3. Moreover, in data set [2], the “LD50” value is above 10 µM.
